These results are taken from ChEMBL document CHEMBL5500346, “Targeting EGFR degradation by autophagosome degraders” (Eur J Med Chem, 2024).

The source made the active and inactive calls. Unless noted, the rule behind the calls is not given here.

One data set deals with A549. Description: Antiproliferative activity against human A549 cells incubated for 72 hrs by CCK8 assay. It is filed as functional, cell-based. The note with it: A549, 72 h. A general note: Tetrazolium dyes change colour on reduction, which living cells bring about.
Another data set relates to HCC827. Kind of data set: Antiproliferative activity against human HCC827 cells incubated for 72 hrs by CCK8 assay. Type of data set: functional, cell-based. The note with it: HCC827, 72 h.
Another data set relates to PC-9. Kind of data set: Antiproliferative activity against human PC-9 cells incubated for 72 hrs by CCK8 assay. It is filed as functional, cell-based. The note with it: PC-9, 72 h.
For another data set, the system named is NCI-H3255. Description: Antiproliferative activity against human NCI-H3255 cells incubated for 72 hrs by CCK8 assay. The note with it: NCI-H3255, 72 h. Type of data set: functional, cell-based.
Another data set has as its system NCI-H1975. Description: Antiproliferative activity against human NCI-H1975 cells incubated for 72 hrs by CCK8 assay. It is filed as functional, cell-based. The note with it: NCI-H1975, 72 h.
In the next data set the test system is L02. Kind of data set: Antiproliferative activity against human HL7702 cells incubated for 72 hrs by CCK8 assay. Type of data set: toxicity, cell-based. The note with it: l02, 72 h.
For data set [1], the target named is T1, Microtubule-associated protein 1 light chain 3 beta/Epidermal growth factor receptor (Homo sapiens, UniProt P00533+Q9GZQ8). Kind of data set: ATTEC activity at LC3B/EGFR in human HCC827 cells assessed as protein degradation by immunoblot analysis. It is filed as cell-based. Background: In western blotting, separated proteins are transferred to a membrane and probed.

For data set [2], the target named is T1, Microtubule-associated protein 1 light chain 3 beta/Epidermal growth factor receptor. Description: Binding affinity to biotinylated LC3B/EGFR in human HCC827 cells BLI assay. It is filed as cell-based.
Data set [3] shares this target. Kind of data set: Binding affinity to biotinylated LC3B/EGFR in human HCC827 cells assessed as dissociation constant BLI assay. Type of data set: cell-based.
Data set [4] shares this target. Kind of data set: ATTEC activity at LC3B/EGFR in human HCC827 cells assessed as increase in density of lysosomes incubated for 4 hrs by LysoTracker Red staining based analysis. Type of data set: cell-based.

In general, IC50 refers to the midpoint of a concentration-inhibition curve. Low values mean higher potency, high ones lower potency. One may read the DC50 as the concentration giving 50% degradation. A word on the Kd: it is a measure of binding affinity in units of concentration. Turning to `COc1cc2ncnc(Nc3ccc(F)c(Cl)c3)c2cc1OCCOCCNC(=O)COc1c(Br)cc(/C=C2\C(=O)Nc3ccccc32)cc1Br`, the 50% inhibitory concentration (IC50) with A549 was greater than 10 µM; in the data set on HCC827, 1.16 µM; in the data set on PC-9 it was 3.63 µM; with NCI-H3255, 0.904 µM; in the data set on NCI-H1975, greater than 10 µM. Also, in the data set on L02, the Activity entry is reported as “Non-Toxic”. In [1], the half-maximal degradation concentration (DC50) was 4.38 µM. Further, the result in [2] and in data set [4] was Active. Besides, the dissociation constant Kd in data set [3] turned out to be 2.2 µM.
